In ChEMBL document CHEMBL2440076, “New triarylpyrazoles as broad-spectrum anticancer agents: design, synthesis, and biological evaluation” (Eur J Med Chem, 2013):

Key:
HOP-92 = assay: Growth inhibition of human HOP92 cells assessed as cell growth at 5X10'-6 M after 48 hrs by sulforhodamine B assay; assay type: functional; details: HOP-92, 48 h, read-out: Activity
SF-539 = assay: Growth inhibition of human SF539 cells assessed as cell growth at 5X10'-7 M after 48 hrs by sulforhodamine B assay; assay type: functional; details: SF-539, 48 h, read-out: Activity
NCI-H23 [1] = assay: Growth inhibition of human NCI-H23 cells assessed as cell growth at 5X10'-9 M after 48 hrs by sulforhodamine B assay; assay type: functional; details: NCI-H23, 48 h, read-out: Activity
SK-OV-3 = assay: Growth inhibition of human SKOV3 cells after 48 hrs by sulforhodamine B assay; assay type: functional; details: SK-OV-3, 48 h; for CC50: read-out: LC50 (the source's name)
M14 [2] = assay: Growth inhibition of human M14 cells assessed as cell growth at 5X10'-8 M after 48 hrs by sulforhodamine B assay; assay type: functional; details: M14, 48 h, read-out: Activity
Malme-3M = assay: Growth inhibition of human MALME-3M cells assessed as cell growth at 5X10'-7 M after 48 hrs by sulforhodamine B assay; assay type: functional; details: read-out: Activity
SNB-19 [3] = assay: Growth inhibition of human SNB19 cells after 48 hrs by sulforhodamine B assay; assay type: functional; details: SNB-19, 48 h
CCRF-CEM = assay: Growth inhibition of human CCRF-CEM cells assessed as cell growth at 5X10'-9 M after 48 hrs by sulforhodamine B assay; assay type: functional; details: read-out: Activity
HT-29 [4] = assay: Growth inhibition of human HT-29 cells assessed as cell growth at 5X10'-6 M after 48 hrs by sulforhodamine B assay; assay type: functional; details: HT-29, 48 h, read-out: Activity
[5] = Growth inhibition of human Hs 578T cells assessed as cell growth at 5X10'-6 M after 48 hrs by sulforhodamine B assay; assay type: functional; details: read-out: Activity
PC-3 = assay: Growth inhibition of human PC3 cells after 48 hrs by sulforhodamine B assay; assay type: functional, cell-based; details: PC-3, 48 h; for CC50: read-out: LC50 (the source's name)
SN12C = assay: Growth inhibition of human SN12C cells assessed as cell growth at 5X10'-9 M after 48 hrs by sulforhodamine B assay; assay type: functional; details: read-out: Activity
KM12 = assay: Growth inhibition of human KM12 cells assessed as cell growth at 5X10'-9 M after 48 hrs by sulforhodamine B assay; assay type: functional; details: KM12, 48 h, read-out: Activity
HT-29 [6] = assay: Growth inhibition of human HT-29 cells after 48 hrs by sulforhodamine B assay; assay type: functional; details: HT-29, 48 h; for CC50: read-out: LC50 (the source's name)
HL-60(TB) = assay: Growth inhibition of human HL-60(TB) cells assessed as cell growth at 5X10'-8 M after 48 hrs by sulforhodamine B assay; assay type: functional; details: HL-60, 48 h, read-out: Activity
SK-MEL-2 = assay: Growth inhibition of human SK-MEL-2 cells assessed as cell growth at 5X10'-9 M after 48 hrs by sulforhodamine B assay; assay type: functional; details: SK-MEL-2, 48 h, read-out: Activity
NCI-H322M = assay: Growth inhibition of human NCI-H322M cells assessed as cell growth at 5X10'-6 M after 48 hrs by sulforhodamine B assay; assay type: functional; details: read-out: Activity
786-0 = assay: Growth inhibition of human 786-0 cells assessed as cell growth at 5X10'-9 M after 48 hrs by sulforhodamine B assay; assay type: functional; details: 786-0, 48 h, read-out: Activity
OVCAR-4 = assay: Growth inhibition of human OVCAR4 cells assessed as cell growth at 10 uM after 48 hrs by sulforhodamine B assay; assay type: functional; details: OVCAR-4, 48 h, read-out: Activity
U-251 = assay: Growth inhibition of human U251 cells assessed as cell growth at 5X10'-5 M after 48 hrs by sulforhodamine B assay; assay type: functional; details: U-251, 48 h, read-out: Activity
NCI-H23 [7] = assay: Growth inhibition of human NCI-H23 cells assessed as cell growth at 10 uM after 48 hrs by sulforhodamine B assay; assay type: functional; details: NCI-H23, 48 h, read-out: Activity
LOX IMVI = assay: Growth inhibition of human LOXIMVI cells assessed as cell growth at 10 uM after 48 hrs by sulforhodamine B assay; assay type: functional; details: read-out: Activity
[8] = Growth inhibition of human Hs 578T cells assessed as cell growth at 5X10'-5 M after 48 hrs by sulforhodamine B assay; assay type: functional; details: read-out: Activity
SK-MEL-5 = assay: Growth inhibition of human SK-MEL-5 cells assessed as cell growth at 10 uM after 48 hrs by sulforhodamine B assay; assay type: functional; details: SK-MEL-5, 48 h, read-out: Activity
MDA-MB-231 = assay: Growth inhibition of human MDA-MB-231 cells after 48 hrs by sulforhodamine B assay; assay type: functional; details: MDA-MB-231, 48 h
A498 = assay: Growth inhibition of human A498 cells assessed as cell growth at 5X10'-7 M after 48 hrs by sulforhodamine B assay; assay type: functional; details: A498, 48 h, read-out: Activity
M14 [9] = assay: Growth inhibition of human M14 cells assessed as cell growth at 10 uM after 48 hrs by sulforhodamine B assay; assay type: functional; details: M14, 48 h, read-out: Activity
NCI-H522 = assay: Growth inhibition of human NCI-H522 cells assessed as cell growth at 5X10'-5 M after 48 hrs by sulforhodamine B assay; assay type: functional; details: NCI-H522, 48 h, read-out: Activity
HCT-116 = assay: Growth inhibition of human HCT116 cells assessed as cell growth at 10 uM after 48 hrs by sulforhodamine B assay; assay type: functional; details: HCT-116, 48 h, read-out: Activity
MCF7 [10] = assay: Growth inhibition of human MCF7 cells assessed as cell growth at 5X10'-6 M after 48 hrs by sulforhodamine B assay; assay type: functional; details: MCF7, 48 h, read-out: Activity
NCI-H226 = assay: Growth inhibition of human NCI-H226 cells assessed as cell growth at 5X10'-6 M after 48 hrs by sulforhodamine B assay; assay type: functional; details: NCI-H226, 48 h, read-out: Activity
HT-29 [11] = assay: Growth inhibition of human HT-29 cells assessed as cell growth at 10 uM after 48 hrs by sulforhodamine B assay; assay type: functional; details: HT-29, 48 h, read-out: Activity
ACHN = assay: Growth inhibition of human ACHN cells assessed as cell growth at 5X10'-7 M after 48 hrs by sulforhodamine B assay; assay type: functional; details: read-out: Activity
OVCAR-5 = assay: Growth inhibition of human OVCAR5 cells assessed as cell growth at 5X10'-9 M after 48 hrs by sulforhodamine B assay; assay type: functional; details: OVCAR-5, 48 h, read-out: Activity
SNB-19 [12] = assay: Growth inhibition of human SNB19 cells assessed as cell growth at 5X10'-9 M after 48 hrs by sulforhodamine B assay; assay type: functional; details: SNB-19, 48 h, read-out: Activity
MCF7 [13] = assay: Growth inhibition of human MCF7 cells assessed as cell growth at 5X10'-7 M after 48 hrs by sulforhodamine B assay; assay type: functional; details: MCF7, 48 h, read-out: Activity

COc1cc(-c2nn(-c3cccc(NC(=O)Nc4cc(C(F)(F)F)cc(C(F)(F)F)c4)c3)cc2-c2ccncc2)ccc1Cl
growth at 5 µM (HOP-92): -52%
growth at 0.5 µM (SF-539): 85%
growth at 0.005 µM (NCI-H23 [1]): 99%
GI50 (SK-OV-3): 1090 nM
TGI (SK-OV-3): 2570 nM
CC50 (SK-OV-3): 15400 nM
growth at 0.05 µM (M14 [2]): 107%
growth at 0.5 µM (Malme-3M): 83%
GI50 (SNB-19 [3]): 711 nM
LC50 (concentration killing 50% of cells) (SNB-19 [3]): > 50000 nM
TGI (SNB-19 [3]): 3670 nM
growth at 0.005 µM (CCRF-CEM): 101%
growth at 5 µM (HT-29 [4]): -68%
growth at 5 µM [5]: -12%
GI50 (PC-3): 250 nM
IC50 (PC-3): 250 nM
TGI (PC-3): 2070 nM
CC50 (PC-3): > 50000 nM
growth at 0.005 µM (SN12C): 96%
growth at 0.005 µM (KM12): 103%
GI50 (HT-29 [6]): 702 nM
TGI (HT-29 [6]): 1610 nM
CC50 (HT-29 [6]): 3710 nM
growth at 0.05 µM (HL-60(TB)): 98%
growth at 0.005 µM (SK-MEL-2): 111%
growth at 5 µM (NCI-H322M): -24%
growth at 0.005 µM (786-0): 100%
growth at 10 µM (OVCAR-4): 17.2%
growth at 50 µM (U-251): -78%
growth at 10 µM (NCI-H23 [7]): -3.3%
growth at 10 µM (LOX IMVI): -91.3%
growth at 50 µM [8]: -10%
growth at 10 µM (SK-MEL-5): -96.1%
GI50 (MDA-MB-231): 664 nM
LC50 (MDA-MB-231): 3000 nM
TGI (MDA-MB-231): 1410 nM
growth at 0.5 µM (A498): 59%
growth at 10 µM (M14 [9]): -42.1%
growth at 50 µM (NCI-H522): -65%
growth at 10 µM (HCT-116): -43.6%
growth at 5 µM (MCF7 [10]): 2%
growth at 5 µM (NCI-H226): 7%
growth at 10 µM (HT-29 [11]): -41.2%
growth at 0.5 µM (ACHN): 50%
growth at 0.005 µM (OVCAR-5): 87%
growth at 0.005 µM (SNB-19 [12]): 95%
growth at 0.5 µM (MCF7 [13]): 68%

COc1cc(-c2nn(-c3cccc(NC(=O)c4cccc(C(F)(F)F)c4)c3)cc2-c2ccncc2)ccc1Cl
growth at 5 µM (HOP-92): -14%
growth at 0.5 µM (SF-539): 81%
growth at 0.005 µM (NCI-H23 [1]): 91%
GI50 (SK-OV-3): 2290 nM
TGI (SK-OV-3): > 50000 nM
CC50 (SK-OV-3): > 50000 nM
growth at 0.05 µM (M14 [2]): 94%
growth at 0.5 µM (Malme-3M): 89%
GI50 (SNB-19 [3]): 2460 nM
LC50 (concentration killing 50% of cells) (SNB-19 [3]): > 50000 nM
TGI (SNB-19 [3]): > 50000 nM
growth at 0.005 µM (CCRF-CEM): 100%
growth at 5 µM (HT-29 [4]): 5%
growth at 5 µM [5]: 2%
GI50 (PC-3): 1230 nM
IC50 (PC-3): 1230 nM
TGI (PC-3): > 50000 nM
CC50 (PC-3): > 50000 nM
growth at 0.005 µM (SN12C): 97%
growth at 0.005 µM (KM12): 100%
GI50 (HT-29 [6]): 1390 nM
TGI (HT-29 [6]): 20100 nM
CC50 (HT-29 [6]): > 50000 nM
growth at 0.05 µM (HL-60(TB)): 92%
growth at 0.005 µM (SK-MEL-2): 96%
growth at 5 µM (NCI-H322M): 52%
growth at 0.005 µM (786-0): 95%
growth at 10 µM (OVCAR-4): 46.5%
growth at 50 µM (U-251): 3%
growth at 10 µM (NCI-H23 [7]): 24.8%
growth at 10 µM (LOX IMVI): 11.4%
growth at 50 µM [8]: 13%
growth at 10 µM (SK-MEL-5): -33%
GI50 (MDA-MB-231): 1240 nM
LC50 (MDA-MB-231): > 50000 nM
TGI (MDA-MB-231): 9960 nM
growth at 0.5 µM (A498): 61%
growth at 10 µM (M14 [9]): 12.3%
growth at 50 µM (NCI-H522): -24%
growth at 10 µM (HCT-116): 8.15%
growth at 5 µM (MCF7 [10]): 13%
growth at 5 µM (NCI-H226): 18%
growth at 10 µM (HT-29 [11]): -12.1%
growth at 0.5 µM (ACHN): 81%
growth at 0.005 µM (OVCAR-5): 95%
growth at 0.005 µM (SNB-19 [12]): 100%
growth at 0.5 µM (MCF7 [13]): 81%
